Experimental data reported in patent US20250145585A1, “HETEROCYCLIC INHIBITORS OF IGF-1R FOR TREATMENT OF DISEASE” (HORIZON THERAPEUTICS IRELAND DAC, priority 2023, published 2025).

Target: T1, IGF-1R (Homo sapiens, UniProt P08069)
T1 construct: expressed in transfected cells
Assay: Example B-1: IGF-1R Assay (PC3 cells stimulated with IGF1, AlphaLISA on cell lysates)
Type: cell-based
Conditions: compound two hours, IGF1 200 ng/mL for 30 min, read-out: IC50, Biological Activity against IGF-1R (Table B1)
In short: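 IC50 from AlphaLISA read-out of lysed PC3 cells, percent inhibition normalized between vehicle and EC80 controls. Before lysis, cells had 2 h serum-free starvation, 2 h exposure to compound in 3× dilution series, and 30 min IGF1 stimulation at final 200 ng/mL.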

T1 sequence (P08069 31-1367): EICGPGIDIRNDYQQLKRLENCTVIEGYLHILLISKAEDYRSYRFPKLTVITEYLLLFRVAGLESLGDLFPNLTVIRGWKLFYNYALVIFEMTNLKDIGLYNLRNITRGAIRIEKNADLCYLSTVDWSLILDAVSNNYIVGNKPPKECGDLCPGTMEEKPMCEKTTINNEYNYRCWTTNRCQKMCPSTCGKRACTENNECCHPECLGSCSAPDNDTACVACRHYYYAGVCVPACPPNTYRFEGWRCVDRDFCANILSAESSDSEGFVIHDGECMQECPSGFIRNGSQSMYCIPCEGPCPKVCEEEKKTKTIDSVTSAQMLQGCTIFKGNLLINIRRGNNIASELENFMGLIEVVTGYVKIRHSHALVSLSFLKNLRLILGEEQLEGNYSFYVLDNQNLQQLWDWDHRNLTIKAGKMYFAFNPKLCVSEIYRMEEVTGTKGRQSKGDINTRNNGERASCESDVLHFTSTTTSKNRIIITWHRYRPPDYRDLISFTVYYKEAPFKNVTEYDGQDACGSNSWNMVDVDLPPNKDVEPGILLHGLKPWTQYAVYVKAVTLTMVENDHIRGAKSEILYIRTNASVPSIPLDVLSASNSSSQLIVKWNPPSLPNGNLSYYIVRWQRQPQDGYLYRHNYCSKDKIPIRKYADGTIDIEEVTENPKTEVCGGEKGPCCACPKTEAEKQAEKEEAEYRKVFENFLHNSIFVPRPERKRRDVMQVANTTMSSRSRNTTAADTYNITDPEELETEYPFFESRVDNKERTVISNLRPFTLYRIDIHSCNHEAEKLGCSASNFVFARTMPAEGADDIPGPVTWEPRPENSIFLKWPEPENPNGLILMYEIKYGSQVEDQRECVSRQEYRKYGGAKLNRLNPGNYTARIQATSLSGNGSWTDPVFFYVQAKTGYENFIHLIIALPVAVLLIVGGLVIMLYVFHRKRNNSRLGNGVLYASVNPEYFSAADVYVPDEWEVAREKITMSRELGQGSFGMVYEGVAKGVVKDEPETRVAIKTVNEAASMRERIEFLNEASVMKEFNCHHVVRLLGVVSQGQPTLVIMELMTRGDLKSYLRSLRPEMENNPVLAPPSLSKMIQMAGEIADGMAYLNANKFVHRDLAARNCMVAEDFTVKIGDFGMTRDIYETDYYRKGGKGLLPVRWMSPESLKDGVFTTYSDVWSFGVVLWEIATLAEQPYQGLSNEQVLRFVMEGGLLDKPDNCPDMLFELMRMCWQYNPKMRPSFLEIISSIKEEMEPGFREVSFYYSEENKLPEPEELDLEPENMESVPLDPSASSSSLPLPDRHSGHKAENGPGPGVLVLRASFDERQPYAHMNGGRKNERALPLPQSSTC

An IC50 of 0.5 to 2 µM was found for `CC1(C)C(=O)N(c2ccc(SC(F)(F)F)cc2)C(=O)N1Cc1ccnc(NC(=O)Nc2ccc(Cl)cc2)c1` [Compound 377, 1-(4-chlorophenyl)-3-(4-((5,5-dimethyl-2,4-dioxo-3-(4-((trifluoromethyl)thio)phenyl)imidazolidin-1-yl)methyl)pyridin-2-yl)urea] in this work.
With `CC1(C)C(=O)N(c2ccc(SC(F)(F)F)cc2)C(=O)N1Cc1ccnc(NC2CCC2)c1` [Compound 378, 1-((2-(cyclobutylamino)pyridin-4-yl)methyl)-5,5-dimethyl-3-(4-((trifluoromethyl)thio)phenyl) imidazolidine-2,4-dione] the IC50 was ≤ 0.5 µM.
An IC50 of 0.5 to 2 µM was found for `CC(C)Nc1cc(CN2C(=O)N(c3ccc(SC(F)(F)F)cc3)C(=O)C2(C)C)ncn1` [Compound 379, 1-((6-(isopropylamino)pyrimidin-4-yl)methyl)-5,5-dimethyl-3-(4-((trifluoromethyl)thio)phenyl) imidazolidine-2,4-dione] in this work.
With `CC1(C)C(=O)N(c2ccc(SC(F)(F)F)cc2)C(=O)N1Cc1ccnc(N)c1F` [Compound 380, 1-((2-amino-3-fluoropyridin-4-yl)methyl)-5,5-dimethyl-3-(4-((trifluoromethyl)thio)phenyl) imidazolidine-2,4-dione] the IC50 was ≤ 0.5 µM.
For `CCC(C)Nc1cc(CN2C(=O)N(c3ccc(SC(F)(F)F)cc3)C(=O)C2(C)C)ccn1` (stereo not shown) [Compound 381, 1-((2-(sec-butylamino)pyridin-4-yl)methyl)-5,5-dimethyl-3-(4-((trifluoromethyl)thio)phenyl)imidazolidine-2,4-dione], the IC50 was ≤ 0.5 µM.
An IC50 of 2 to 10 µM was found for `CC(C)Nc1nccc(CN2C(=O)N(c3ccc(SC(F)(F)F)cc3)C(=O)C2(C)C)c1F` [Compound 382, 1-((3-fluoro-2-(isopropylamino)pyridin-4-yl)methyl)-5,5-dimethyl-3-(4-((trifluoromethyl)thio)phenyl) imidazolidine-2,4-dione] in this work.
An IC50 of 2 to 10 µM was found for `CC(C)Nc1cc(CN2C(=O)N(c3ccc(SC(F)(F)F)cc3)C(=O)C2(C)C)cc(F)n1` [Compound 383, 1-((2-fluoro-6-(isopropylamino)pyridin-4-yl)methyl)-5,5-dimethyl-3-(4-((trifluoromethyl)thio)phenyl) imidazolidine-2,4-dione] in this work.
With `CC(C)Nc1cc(CN2C(=O)N(c3ccc(SC(F)(F)F)cc3)C(=O)C2(C)C)c(F)cn1` [Compound 384, 1-((5-fluoro-2-(isopropylamino)pyridin-4-yl)methyl)-5,5-dimethyl-3-(4-((trifluoromethyl)thio)phenyl) imidazolidine-2,4-dione] the IC50 was ≤ 0.5 µM.
An IC50 of 0.5 to 2 µM was found for `CC(C)C#Cc1cc(CN2C(=O)N(c3ccc(SC(F)(F)F)cc3)C(=O)C2(C)C)cnc1N` [Compound 385, 1-((6-amino-5-(3-methylbut-1-yn-1-yl)pyridin-3-yl)methyl)-5,5-dimethyl-3-(4-((trifluoromethyl)thio)phenyl) imidazolidine-2,4-dione] in this work.
An IC50 of 2 to 10 µM was found for `CC(C)Nc1cc(CN2C(=O)N(c3ccc(SC(F)(F)F)cc3)C(=O)C2(C)C)cnn1` [Compound 386, 1-((6-(isopropylamino)pyridazin-4-yl)methyl)-5,5-dimethyl-3-(4-((trifluoromethyl)thio)phenyl) imidazolidine-2,4-dione] in this work.
An IC50 of 0.5 to 2 µM was found for `CC(C)(C)Nc1cc(CN2C(=O)N(c3ccc(SC(F)(F)F)cc3)C(=O)C2(C)C)ccn1` [Compound 387, 1-((2-(tert-butylamino)pyridin-4-yl)methyl)-5,5-dimethyl-3-(4-((trifluoromethyl)thio)phenyl) imidazolidine-2,4-dione] in this work.
For `CC1(C)C(=O)N(c2ccc([S+]([O-])C(F)(F)F)cc2)C(=O)N1Cc1ccnc(N)c1` (stereo not shown) [Compound 393, 1-((2-aminopyridin-4-yl)methyl)-5,5-dimethyl-3-(4-((trifluoromethyl)sulfinyl)phenyl) imidazolidine-2,4-dione], the IC50 was ≤ 0.5 µM.
An IC50 of 2 to 10 µM was found for `CSc1ccc(N2C(=O)N(Cc3ccnc(N)c3)C(C)(C)C2=O)cc1` [Compound 395, 1-((2-aminopyridin-4-yl)methyl)-5,5-dimethyl-3-(4-(methylthio)phenyl)imidazolidine-2,4-dione] in this work.
